Laboratory results from article PMC12583774 (Nature Communications, 2025).

Target: SARS-CoV-2 NSP14 (Severe acute respiratory syndrome coronavirus 2, UniProt P0DTD1)
Assay type: binding

Row | Compound | Tm changes | Tm shift, maximum reached
1 | Cn1c[n+]([C@@H]2O[C@H](COP(=O)(O)OP(=O)([O-])OP(=O)(O)OC[C@H]3O[C@@H](n4cnc5c(=O)[nH]c(N)nc54)[C@H](O)[C@@H]3O)[C@@H](O)[C@H]2O)c2nc(N)[nH]c(=O)c21 [m7GpppG] | negligible Tm changes | –
2 | C[S+](CC[C@H](N)C(=O)[O-])C[C@H]1O[C@@H](n2cnc3c(N)ncnc32)[C@H](O)[C@@H]1O (stereo partly shown) [SAM, S-adenosylmethionine] | negligible Tm changes | –
3 | Nc1nc2c(ncn2[C@@H]2O[C@H](COP(=O)(O)OP(=O)(O)OP(=O)(O)OC[C@H]3O[C@@H](n4cnc5c(=O)[nH]c(N)nc54)[C@H](O)[C@@H]3O)[C@@H](O)[C@H]2O)c(=O)[nH]1 [GpppG, G(5′)ppp(5′)G RNA Cap Structure Analog] | negligible Tm changes | –
4 | Nc1ncnc2c1ncn2[C@@H]1O[C@H](CSCC[C@H](N)C(=O)O)[C@@H](O)[C@H]1O [SAH] | – | ≤ 10.0 °C
